According to patent US20050148631A1, “Amino heterocyclyl inhibitors of 11-beta-hydroxy steroid dehydrogenase type 1” (AGOURON PHARMACEUTICALS, INC., priority 2003, published 2005):
Read-outs that look alike come from different tables or passages of the source.

Key:
[1] = molecular target: T1, 11β-hsd-1 enzyme (Homo sapiens, UniProt P28845); experiment: 11β-hsd-1 enzyme assay, Kiapp determination (3H-cortisone to cortisol, radio-HPLC); type: biochemical; conditions: read-out: Ki app
[2] = molecular target: T1, 11β-hsd-1 enzyme; experiment: 11β-hsd-1 enzyme assay, percentage of inhibition (3H-cortisone to cortisol, radio-HPLC); type: biochemical; conditions: for inhibition at 0.1 µM: read-out: % inh @ 0.1 uM

T1 sequence (P28845 whole entry, species assumed): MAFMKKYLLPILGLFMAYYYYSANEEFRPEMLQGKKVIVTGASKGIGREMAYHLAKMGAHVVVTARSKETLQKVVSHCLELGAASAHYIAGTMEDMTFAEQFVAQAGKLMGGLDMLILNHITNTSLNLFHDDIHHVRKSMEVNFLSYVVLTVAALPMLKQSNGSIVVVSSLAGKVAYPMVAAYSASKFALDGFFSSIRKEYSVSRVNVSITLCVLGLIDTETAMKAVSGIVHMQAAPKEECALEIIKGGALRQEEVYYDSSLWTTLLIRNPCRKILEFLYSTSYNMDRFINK

SMILES	Ki [1]	inhibition at 0.1 µM ([2]; 0.1 uM)	Ki ([1]; apparent Ki, 11β-hsd-1 enzyme)	inhibition at 0.1 µM ([2]; compound at 0.1 uM)	% inh @ 0.1 uM ([2]; 0.1 uM)
CCOC(=O)Cc1cccc(NS(=O)(=O)c2ccc(-c3ccc(C#N)cc3)cc2)n1 [Example 2]	16 nM	85.4%	–	–	–
Cc1cccc(NS(=O)(=O)c2ccc(-c3ccc(F)c(F)c3)cc2C)n1 [Example 208]	–	–	6.7 nM	95%	–
Cc1cccc(NS(=O)(=O)c2ccc(-c3ccc(Cl)cc3)cc2)n1 [Example 249, 4′-Chloro-biphenyl-4-sulfonic acid (6-methyl-pyridin-2-yl)-amide]	–	–	5.8 nM	96%	–
CCOc1ccccc1-c1ccc(S(=O)(=O)Nc2cccc(C)n2)cc1C [Example 232]	–	–	660 nM	78%	–
Cc1cccc(NS(=O)(=O)c2ccc(-c3ccc(Cl)cc3Cl)c(C)c2)n1 [Example 221]	–	–	18 nM	87%	–
Cc1cccc(NS(=O)(=O)c2cccc(Cl)c2C)n1 [Example 38]	169 nM	–	–	–	49%
Cc1cccc(NS(=O)(=O)c2ccc(-c3ccc(CC(C)C)cc3)cc2C)n1 [Example 210]	–	–	47 nM	74%	–
Cc1cccc(NS(=O)(=O)c2ccc(-c3cccc(Cl)c3Cl)cc2C)n1 [Example 196]	7.1 nM	90%	–	–	–
Cc1cccc(NS(=O)(=O)c2cccc(Cl)c2C)n1 [Example 34]	169 nM	48.8%	–	–	–
Cc1cccc(NS(=O)(=O)c2ccc(-c3cccc(F)c3)c(C)c2)n1 [Example 224]	–	–	19 nM	93%	–
Cc1cccc(NS(=O)(=O)c2ccc(-c3cccc(F)c3F)cc2C)n1 [Example 198]	–	–	7.5 nM	100%	–
COc1ccc(-c2ccc(S(=O)(=O)Nc3cccc(C)n3)c(C)c2)cc1 [Example 169]	19 nM	93%	–	–	–
Cc1cc(C)nc(NS(=O)(=O)N2CCC(c3ccc(C#N)cc3)CC2)c1 [Example 311]	–	–	2.6 nM	100%	–
Cc1cccc(NS(=O)(=O)c2ccc(-c3cccc(F)c3)cc2)n1 [Example 133]	24.7 nM	84.8%	–	–	–
Cc1cccc(NS(=O)(=O)c2ccc(-c3ccc(F)cc3C)cc2)n1 [Example 253]	–	–	33.4 nM	79.3%	–
Cc1cccc(NS(=O)(=O)c2ccc(-c3ccccc3F)cc2C)n1 [Example 186]	9.3 nM	95%	–	–	–
Cc1cccc(NS(=O)(=O)c2ccc(-c3cccc(Cl)c3)cc2C)n1 [Example 163]	8 nM	97%	–	–	–
CCOc1ccc(-c2ccc(S(=O)(=O)Nc3cccc(C)n3)c(C)c2)cc1 [Example 192]	15 nM	81%	–	–	–
Cc1cccc(NS(=O)(=O)c2ccc(-c3ccc4c(c3)OCCO4)cc2C)n1 [Example 206]	–	–	20 nM	87%	–
COc1ccc(-c2ccc(S(=O)(=O)Nc3cccc(C)n3)cc2)cn1 [Example 256]	–	–	34.9 nM	89.3%	–
Cc1cccc(NS(=O)(=O)c2ccc(-c3cccc(Cl)c3)c(C)c2)n1 [Example 213]	–	–	31 nM	77%	–
Cc1cccc(NS(=O)(=O)c2ccc(-c3ccccc3)cc2C)n1 [Example 166]	12 nM	95%	–	–	–
N#Cc1ccc(-c2ccc(S(=O)(=O)Nc3ccc4ccccc4n3)cn2)cc1 [Example 290, 6-(4-Cyano-phenyl)-pyridine-3-sulfonic acid quinolin-2-ylamide]	–	–	12 nM	100%	–
Cc1cccc(NS(=O)(=O)c2ccc(C(C)C)cc2)n1 [Example 70]	216 nM	78.7%	–	–	–
Cc1cc(-c2ccc(S(=O)(=O)Nc3cccc(N)n3)cc2)ccc1C#N [Example 282, 4′-Cyano-3′-methyl-biphenyl-4-sulfonic acid (6-amino-pyridin-2-yl)-amide]	–	–	< 1 nM	100%	–
N#Cc1ccc(-c2ccc(S(=O)(=O)Nc3cccc(C4CC4)n3)cn2)cc1 [Example 293, 6-(4-Cyano-phenyl)-pyridine-3-sulfonic acid (6-cyclopropyl-pyridin-2-yl)-amide]	–	–	6.4 nM	100%	–
Nc1cccc(NS(=O)(=O)c2ccc(-c3ccc(F)cc3)cc2)n1 [Example 43]	8.1 nM	98%	–	–	–
Cc1cccc(NS(=O)(=O)c2ccc3ccc(Cl)cc3c2)n1 [Example 93]	42.3 nM	70%	–	–	–

SMILES	Ki [1]	inhibition at 0.1 µM ([2]; 0.1 uM)	Ki ([1]; apparent Ki, 11β-hsd-1 enzyme)	inhibition at 0.1 µM ([2]; compound at 0.1 uM)	% inh @ 0.1 uM ([2]; 0.1 uM)
Cc1cccc(NS(=O)(=O)c2ccc(-c3ccc(CO)cc3)c(C)c2)n1 [Example 223]	–	–	320 nM	79%	–
Cc1cccc(NS(=O)(=O)N2CCC(c3ccccc3)CC2)n1 [Example 306]	–	–	7.4 nM	100%	–
Cc1cccc(NS(=O)(=O)c2ccc3ccccc3c2)n1 [Example 37]	84 nM	45%	–	–	–
CCCCc1ccc(-c2ccc(S(=O)(=O)Nc3cccc(C)n3)c(C)c2)cc1 [Example 209]	–	–	18 nM	88%	–
Cc1cccc(NS(=O)(=O)c2sc3ccc(C#N)cc3c2C)n1 [Example 91]	2.3 nM	100%	–	–	–
COc1cccc(-c2ccc(S(=O)(=O)Nc3cccc(C)n3)c(C)c2)c1 [Example 162]	21 nM	89%	–	–	–
COc1ccc(-c2ccc(S(=O)(=O)Nc3cccc(C)n3)c(C)c2)cc1F [Example 187]	9.5 nM	93%	–	–	–
Cc1cccc(NS(=O)(=O)c2ccc(-c3ccc(C#N)c(C)c3)cc2)n1 [Example 273]	–	–	5.3 nM	95.5%	–
Cc1cccc(NS(=O)(=O)c2sc3ccc(F)cc3c2C)n1 [Example 103]	< 1 nM	100%	–	–	–
Nc1cccc(NS(=O)(=O)c2ccc(-c3ccc(Cl)cc3)cc2)n1 [Example 42]	4.6 nM	96%	–	–	–
Cc1cccc(NS(=O)(=O)c2ccc(-c3cccc(C(C)C)c3)cc2C)n1 [Example 193]	39 nM	78%	–	–	–
N#Cc1ccc(-c2ccc(S(=O)(=O)Nc3cccc(C4CC4)n3)cc2)cc1 [Example 112, 4′-Cyano-biphenyl-4-sulfonic acid (6-cyclopropyl-pyridin-2-yl)-amide]	1.9 nM	100%	–	–	–
COc1ccc(-c2ccc(S(=O)(=O)Nc3cccc(C)n3)c(C)c2)cc1C [Example 205]	–	–	19 nM	86%	–
CCc1ccc(-c2ccc(S(=O)(=O)Nc3cccc(C)n3)c(C)c2)cc1 [Example 191]	11 nM	100%	–	–	–
CCc1cccc(NS(=O)(=O)N2CCc3ccccc3C2)n1 [Example 303]	–	–	7.6 nM	89.3%	–
Cc1cccc(NS(=O)(=O)c2ccc(-c3ccc(F)c(Cl)c3)cc2C)n1 [Example 170]	8.1 nM	93%	–	–	–
Cc1cc(C)nc(NS(=O)(=O)N2CCc3ccccc3C2)c1 [Example 304]	–	–	20 nM	79.6%	–
COc1ccc(-c2ccc(S(=O)(=O)Nc3cccc(C)n3)cc2)cc1 [Example 161]	22.5 nM	90.3%	–	–	–
Cc1cccc(NS(=O)(=O)c2ccc(-c3ccc(C#N)cc3)cc2)n1 [Example 33, 4′-Cyano-biphenyl-4-sulfonic acid (6-methyl-pyridin-2-yl)-amide]	6.4 nM	97%	–	–	–
Cc1cccc(NS(=O)(=O)/C=C/c2ccccc2)n1 [Example 109]	270 nM	57.2%	–	–	–
N#Cc1ccc(-c2ccc(S(=O)(=O)Nc3ccc4ccccc4n3)cc2)cc1 [Example 87]	3.6 nM	100%	–	–	–
CCc1cccc(NS(=O)(=O)c2sc3ccc(Cl)cc3c2C)n1 [Example 69]	1.1 nM	100%	–	–	–
N#Cc1ccc(-c2ccc(S(=O)(=O)Nc3ccc4occc4n3)cc2)cc1 [Example 86]	14.3 nM	100%	–	–	–
Cc1cccc(NS(=O)(=O)c2ccc(-c3ccc(S(C)(=O)=O)cc3)cc2C)n1 [Example 200]	–	–	21 nM	88%	–
Cc1cccc(NS(=O)(=O)c2ccc(-c3cccc(O)c3)cc2C)n1 [Example 185]	46 nM	71%	–	–	–
Cc1cccc(NS(=O)(=O)c2ccc(-c3ccc(F)c(C)c3)cc2C)n1 [Example 183]	14 nM	91%	–	–	–
N#Cc1ccc(-c2ccc(S(=O)(=O)Nc3cccc(CCO)n3)cc2)cc1 [Example 117]	26.2 nM	84.8%	–	–	–
